A short description of data set [1]: Compound stability in human plasma. The data set is classed as in vitro ADME. Here is the method: Compounds were assayed for stability in human plasma under the following conditions. Human plasma was obtained from Bioreclamation (Westbury, N.Y.) and collected in sodium heparin. Plasma was adjusted to pH 7.4. DMSO stocks at 10 mM concentration were prepared for the test compounds. Aliquots of the DMSO solutions were dosed into 1 mL of plasma, which had been pre-warmed to 37° C., at a final test compound concentration of 10 μM. The vials were kept in a benchtop THERMOMIXER® (Eppendorf, Hauppauge, N.Y.) for the duration of the experiment. Aliquots (100 μL) were taken at each timepoint and added to a 96-well plate that had been pre-filled with 300 μL of an acetonitrile solution containing mixture of the internal standards (metoprolol, propranolol and warfarin each at 500 ng/mL). […] Aliquots of the supernatant were removed and analyzed by LC-HRAMS.

The target of data set [2] is T1, C5 (Homo sapiens, UniProt P01031). Put plainly: Competitive fluorescence polarization (FP) binding assay with probe R3076. Details: purchased Complement Technology, Tyler, Tex. How it is done:
FP was used for screening competitive polypeptide inhibitors of the C5 protein. […] The BODIPY-TMR dye attached to the C-terminal lysine of the protein and the subsequent labeled probe was purified by HPLC.
Human C5 protein was diluted to 200 nM in assay buffer, composed of TBS (EMD Millipore, Billerica, Mass.)+0.005% Triton-X (Sigma, Saint Louis, Mo.). 10 μl of assay buffer was added to all wells of a black, non-binding, 384-well assay plate (Greiner, Monroe, N.C.) and 10 μl of diluted C5 protein stock was added to experimental and designated control wells.
Probe R3076 (SEQ ID NO: 40) was diluted 1 to 10 in DMSO (Life Technologies, Grand Island, N.Y.) and 30 μl of that stock was diluted in 3 ml of assay buffer to yield a 100 nM stock. 10 μl of this working stock was then added to each well in the assay plate. The assay plate was incubated at room temperature, protected from light, for 20 minutes to allow binding to reach equilibrium.
Test articles listed in Table 7 were subsequently diluted in DMSO then assay buffer, comprising 10 2-fold dilutions and were then added to the assay plate in triplicate, rapidly. The assay plate was then incubated in the Paradigm (Molecular Devices, Sunnyvale, Calif.) plate reader for 60 minutes at 25° C.
After incubation for 60 minutes, the plate was read using the Paradigm FP protocol (Molecular Devices, Sunnyvale, Calif.) and raw polarization values were imported into Graphpad Prism.

Data set [3] deals with primate C5 protein. The data set can be described thus: Ex vivo hemolysis assay with cynomolgus plasma. Type of data set: cell-based, cynomolgus monkey. Here is the method: At each time-point, the hemolytic activity was determined as an indicator of active serum complement (see FIG. 4).
Data set [4] can be described thus: Pharmacokinetic studies in rat (IV and SC). The following applies: SC 30 mg/kg, combined R3152 and R3201. The text has this:
In the figure, circles represent concentrations obtained after SC dose and squares represent concentrations obtained after IV dose.
Blood samples were collected at indicated time points, processed into plasma, and analyzed for the indicated compound by LC-MS. […] Blood samples were collected at indicated time points, processed into plasma, and analyzed for the indicated compound by LC-MS.

Data set [5] concerns rat C5. Put plainly: Ex vivo hemolysis assays, rat PK study. The following applies: rat plasma after dosing. The data set is classed as cell-based.
Data set [6] has as its system rat C5. Put plainly: Binding to rat C5 (statement).
For data set [7] the following is noted: 3 mg/kg IV, cynomolgus monkey.
Data set [8] concerns the target T1, C5. Put plainly: Human hemolysis assay (RBC lysis assay using complete human sera). Type of data set: cell-based. Details: with complete human sera (Complement Technology, Tyler Tex.) and polypeptides; tissue Complement Technology, Tyler Tex; host or cells: complete human serum. The note with it: compounds tested in in vivo studies; average IC50, assay and unit inferred. Here is the method:
Polypeptides listed in Table 3, as well as their optimized derivatives (see Table 4) were assessed for inhibitor activity using a red blood cell hemolysis assay. […] Human sera was rapidly thawed at 37° C. and then stored on ice until diluted into GVB++. Ten 6-fold serial dilutions of polypeptides (10 mM stock, DMSO) were performed in DMSO and then added to buffer. 50 μl of each polypeptide dilution was combined with sera and 100 μl of cells in individual wells of a 96-well tissue culture-treated clear microtitre plate (USA Scientific, Ocala, Fla.) and resuspended by pipetting. Samples were incubated at 37° C. for one hour. […] Data was fit with a log-logit formula producing a dose-response curve and IC50. As used herein, the term “IC50” refers to the half maximal inhibitory concentration, a value used to indicate the amount of the inhibitor needed to reduce a given reaction or process by half.
The human constant light chain kappa and IgG2 constant heavy chain sequences were used for the constants regions of the antibody. This antibody was expressed from human embryonic kidney cells (HEK293) and purified by Protein A affinity chromatography. […] Human sera was rapidly thawed at 37° C. and then stored on ice until diluted into GVB++. Ten 6-fold serial dilutions of each compound (10 mM stock, DMSO) were performed in DMSO and then added to buffer. 50 μl of each compound dilution was combined with sera and 100 μl of cells in individual wells of a 96-well tissue culture-treated clear microtitre plate (USA Scientific, Ocala, Fla.) and resuspended by pipetting. Samples were incubated at 37° C. for one hour. […] Data was fit with a log-logit formula producing a dose-response curve and IC50 (see FIG. 11A).

Starred links: 1 amine or outer side, 2 acyl side, 3 side chain; linkers in the order of their positions; H or OH if unused. Positions of bridges follow the written chain, without caps; N, C: chain ends. Non-standard residues stand in square brackets, D forms with d. Residues, ends and D or L forms follow the SMILES beside them. Trp(7-aza) = N[C@@H](Cc1c[nH]c2ncccc12)C(=O)O; pXylylene = c1cc(C[*:2])ccc1C[*:1]; Phg = N[C@H](C(=O)O)c1ccccc1; NMeS = CN[C@@H](CO)C(=O)O; Nva = CCC[C@H](N)C(=O)O

T1 sequence (P01031 678-1676 limits assumed): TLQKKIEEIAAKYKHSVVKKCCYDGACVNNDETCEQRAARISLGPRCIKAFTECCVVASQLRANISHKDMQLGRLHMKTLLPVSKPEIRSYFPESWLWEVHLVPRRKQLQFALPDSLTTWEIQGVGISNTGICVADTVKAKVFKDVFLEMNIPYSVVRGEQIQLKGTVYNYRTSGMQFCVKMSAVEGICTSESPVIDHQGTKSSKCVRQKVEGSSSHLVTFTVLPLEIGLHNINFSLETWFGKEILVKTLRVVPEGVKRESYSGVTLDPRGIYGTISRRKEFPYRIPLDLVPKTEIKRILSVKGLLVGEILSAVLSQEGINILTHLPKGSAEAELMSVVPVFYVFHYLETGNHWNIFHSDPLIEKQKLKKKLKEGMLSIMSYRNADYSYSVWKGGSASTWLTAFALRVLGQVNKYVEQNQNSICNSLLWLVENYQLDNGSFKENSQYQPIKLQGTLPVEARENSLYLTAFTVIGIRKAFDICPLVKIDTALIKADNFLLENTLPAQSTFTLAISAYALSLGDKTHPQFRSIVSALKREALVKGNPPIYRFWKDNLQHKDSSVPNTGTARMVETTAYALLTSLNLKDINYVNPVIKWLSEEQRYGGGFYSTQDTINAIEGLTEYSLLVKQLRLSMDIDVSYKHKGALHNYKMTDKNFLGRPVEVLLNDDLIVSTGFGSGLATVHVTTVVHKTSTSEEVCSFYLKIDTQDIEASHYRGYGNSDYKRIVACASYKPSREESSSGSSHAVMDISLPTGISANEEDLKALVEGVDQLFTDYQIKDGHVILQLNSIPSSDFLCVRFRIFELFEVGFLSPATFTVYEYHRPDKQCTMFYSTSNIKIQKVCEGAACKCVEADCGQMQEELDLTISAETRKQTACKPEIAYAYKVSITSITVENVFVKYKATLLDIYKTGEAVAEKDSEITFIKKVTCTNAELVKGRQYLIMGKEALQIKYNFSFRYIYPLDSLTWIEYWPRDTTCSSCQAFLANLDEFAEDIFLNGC
T1 sequence (P01031 19-673 limits assumed): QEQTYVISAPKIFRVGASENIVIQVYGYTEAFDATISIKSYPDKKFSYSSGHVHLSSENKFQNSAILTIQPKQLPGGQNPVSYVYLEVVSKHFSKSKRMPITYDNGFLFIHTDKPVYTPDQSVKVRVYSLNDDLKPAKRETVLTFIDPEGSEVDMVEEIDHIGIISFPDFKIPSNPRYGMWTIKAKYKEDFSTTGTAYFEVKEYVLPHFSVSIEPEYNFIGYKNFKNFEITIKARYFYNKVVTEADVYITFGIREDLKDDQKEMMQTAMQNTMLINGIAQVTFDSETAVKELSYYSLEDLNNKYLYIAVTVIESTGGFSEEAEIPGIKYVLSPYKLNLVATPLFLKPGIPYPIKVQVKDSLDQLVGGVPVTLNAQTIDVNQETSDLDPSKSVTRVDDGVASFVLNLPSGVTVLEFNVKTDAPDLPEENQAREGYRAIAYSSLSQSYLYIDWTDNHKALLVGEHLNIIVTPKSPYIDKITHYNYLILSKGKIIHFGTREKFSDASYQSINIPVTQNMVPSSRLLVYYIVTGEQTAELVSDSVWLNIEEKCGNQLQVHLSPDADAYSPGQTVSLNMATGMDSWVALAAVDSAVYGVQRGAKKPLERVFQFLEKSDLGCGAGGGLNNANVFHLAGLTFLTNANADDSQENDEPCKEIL

As for `CCC[C@H](NC(=O)[C@@H]1CSCc2ccc(cc2)CSC[C@H](NC(=O)[C@H](CCC)NC(C)=O)C(=O)N[C@@H](c2ccccc2)C(=O)N[C@@H]([C@@H](C)O)C(=O)N[C@@H](Cc2c[nH]c3ncccc23)C(=O)N[C@@H](CCC(=O)O)C(=O)N[C@@H](Cc2ccc(O)cc2)C(=O)N(C)[C@@H](CO)C(=O)N[C@@H](Cc2c[nH]cn2)C(=O)N1)C(N)=O` [Compound R3050, [pXylyl(2,10)]Ac-Nvl-C-Phg-T-azaTrp-E-Y-(N—Me)S-H-C-Nvl-NH2] (Ac-[Nva]C[Phg]T[Trp(7-aza)]EY[NMeS]HC[Nva]-NH2; linker 2-10 via pXylylene), in data set [1], the “stability in human plasma in words” value is “highly stable”. Also, in data set [1] (37° C., 10 μM, 0 hrs), the “Percent remaining at time 0 hrs” value was determined as 100%. For the same molecule, the “competition for / affinity for C5 in words” value in data set [2] is recorded as “relatively strong affinity”.
`CCC[C@H](NC(=O)[C@@H](NC(=O)[C@@H]1CCCN1C(=O)[C@H](Cc1ccc(O)cc1)NC(=O)[C@H](CCC(=O)O)NC(=O)[C@H](Cc1c[nH]c2ncccc12)NC(=O)[C@H](Cc1ccc(O)cc1)NC(=O)[C@@H](NC(=O)[C@H](CC(=O)O)NC(=O)[C@@H]1CSCc2cccc(c2)CSC[C@H](NC(C)=O)C(=O)N[C@@H](C(C)C)C(=O)N[C@@H](CCC(=O)O)C(=O)N[C@@H](CCCNC(=N)N)C(=O)N[C@@H](Cc2ccccc2)C(=O)N1)C(C)(C)C)C1CCCCC1)C(N)=O` [Compound R3152, [mXylyl(1,6)]Ac-C-V-E-R-F-C-D-Tbg-Y-azaTrp-E-Y-P-Chg-Nvl-NH2]: the “time after dosing at which hemolytic activity returned to normal levels” value in data set [3] (3 mg/kg IV, plasma levels fell below 100 ng/ml) is 48 h. Moreover, the “plasma concentration with clear inhibition of complement-mediated hemolysis” value in data set [3] (ex vivo, plasma diluted 1:100, after 3 mg/kg IV) is on record as > 200 ng/mL. Further, the “bioavailability of dose, based on AUC” value in data set [4] is reported as “approximately 65%”. The “inhibitory activity in ex vivo hemolysis assays” value in data set [5] was “very little inhibitory activity”. For the same molecule, in data set [6], the “binding to rat C5” value is “do not bind”. Besides, in data set [7], the “average AUC∞” value turned out to be 23319 ± 2120 ng·h/mL, the mean clearance rate turned out to be 2.15 ± 0.203 mL/min/kg, the mean terminal half-life is 10.9 ± 0.8 h and the “mean volume of distribution” value stood at 1.49 ± 0.152 L/kg.
Broadly, the IC50 is the midpoint of a concentration-inhibition curve. Take `CCC[C@H](NC(=O)[C@@H](NC(=O)[C@@H]1CCCN1C(=O)[C@H](Cc1ccc(O)cc1)NC(=O)[C@H](CCC(=O)O)NC(=O)[C@H](Cc1c[nH]c2ncccc12)NC(=O)[C@H](Cc1ccc(O)cc1)NC(=O)[C@@H](NC(=O)[C@H](CC(=O)O)NC(=O)[C@@H]1CSCc2cccc(c2)CSC[C@H](NC(C)=O)C(=O)N[C@@H](C(C)C)C(=O)N[C@@H](CCC(=O)O)C(=O)N[C@@H](CCCNC(=N)N)C(=O)N[C@@H](Cc2ccccc2)C(=O)N1)C(C)(C)C)C1CCCCC1)C(=O)O` [Compound R3201, [mXylyl(1,6)]Ac-C-V-E-R-F-C-D-Tbg-Y-azaTrp-E-Y-P-Chg-Nvl]: the “binding to rat C5” value in data set [6] was “do not bind”. This molecule also displayed an IC50 in data set [8] of 7.7 nM.
